The source made the active and inactive calls. The calls are words filed in the database; no cut-off is given here.
Key:
[1] = tested on: UACC-257; assay: Growth inhibition of human UACC257 cells after 48 hrs by sulforhodamine B assay; type: functional; conditions: UACC-257, 48 h
[2] = tested on: MDA-MB-231; assay: Growth inhibition of human MDA-MB-231 cells after 48 hrs by sulforhodamine B assay; type: functional; conditions: MDA-MB-231, 48 h
[3] = tested on: M14; assay: Growth inhibition of human M14 cells after 48 hrs by sulforhodamine B assay; type: functional; conditions: M14, 48 h
[4] = tested on: SF-539; assay: Growth inhibition of human SF539 cells after 48 hrs by sulforhodamine B assay; type: functional; conditions: SF-539, 48 h
[5] = tested on: A-431; assay: Cytotoxicity against human A431 cells after 72 hrs by MTT assay; type: functional, cell-based
[6] = tested on: UO-31; assay: Growth inhibition of human UO31 cells after 48 hrs by sulforhodamine B assay; type: functional; conditions: UO-31, 48 h
[7] = tested on: BGC-823; assay: Cytotoxicity against human BGC823 cells after 72 hrs by MTT assay; type: functional, cell-based
[8] = tested on: Mus musculus; assay: Toxicity in human cancer cells xenografted in nu/nu BALB/c mouse assessed as body weight loss at 5 to 30 mg/kg, ip qd for 24 days; type: organism-based, Cancer cell lines; design: dose 5-30 mg/kg, route intraperitoneal; conditions: in vivo, 576 h
[9] = tested on: EKVX; assay: Growth inhibition of human EKVX cells after 48 hrs by sulforhodamine B assay; type: functional
[10] = tested on: Lewis lung carcinoma cell line; assay: Antimetastatic activity against mouse LLC cells xenografted in C57BL/6 mouse assessed as inhibition of lung metastasis at 10 mg/kg, ip qd for 15 days relative to control; type: functional; conditions: 360 h, route intraperitoneal, read-out: GI
[11] = tested on: OVCAR-4; assay: Growth inhibition of human OVCAR4 cells after 48 hrs by sulforhodamine B assay; type: functional; conditions: OVCAR-4, 48 h
[12] = tested on: MOLT-4; assay: Growth inhibition of human MOLT4 cells after 48 hrs by sulforhodamine B assay; type: functional; conditions: MOLT-4, 48 h
[13] = tested on: CAKI-1; assay: Growth inhibition of human Caki1 cells after 48 hrs by sulforhodamine B assay; type: functional; conditions: CAKI-1, 48 h
[14] = tested on: OVCAR-5; assay: Growth inhibition of human OVCAR5 cells after 48 hrs by sulforhodamine B assay; type: functional; conditions: OVCAR-5, 48 h
[15] = tested on: NCI-H226; assay: Growth inhibition of human NCI-H226 cells after 48 hrs by sulforhodamine B assay; type: functional; conditions: NCI-H226, 48 h
[16] = tested on: NCI-H460; assay: Growth inhibition of human NCI-H460 cells after 48 hrs by sulforhodamine B assay; type: functional; conditions: NCI-H460, 48 h
[17] = tested on: Mus musculus; assay: Antimetastatic activity against mouse 4T1 cells xenografted in BALB/c mouse assessed as reduction of TNFalpha mRNA expression in tumor at 5 mg/kg, ip qd for 23 days by RT-PCR analysis; type: functional, organism-based; design: dose 5 mg/kg
[18] = tested on: Mus musculus; assay: Antimetastatic activity against mouse 4T1 cells xenografted in BALB/c mouse assessed as reduction of CCL2 mRNA expression in tumor at 5 mg/kg, ip qd for 23 days by RT-PCR analysis; type: functional, organism-based; design: dose 5 mg/kg
[19] = tested on: NCI-H460; assay: Antitumor activity against human H460 cells xenografted in nu/nu BALB/c mouse assessed as tumor growth inhibition at 20 mg/kg, ip qd for 24 days measured on day 25 relative to control; type: functional; conditions: route intraperitoneal, read-out: GI
[20] = Growth inhibition of human […] cells after 48 hrs by sulforhodamine B assay; type: functional
[21] = tested on: SK-MEL-28; assay: Growth inhibition of human SK-MEL-28 cells after 48 hrs by sulforhodamine B assay; type: functional; conditions: SK-MEL-28, 48 h
[22] = tested on: MDA-MB-435; assay: Growth inhibition of human MDA-MB-435 cells after 48 hrs by sulforhodamine B assay; type: functional; conditions: MDA-MB-435, 48 h
[23] = tested on: OVCAR-8; assay: Growth inhibition of human OVCAR8 cells after 48 hrs by sulforhodamine B assay; type: functional; conditions: OVCAR-8, 48 h
[24] = tested on: HCT-8; assay: Cytotoxicity against human HCT8 cells after 72 hrs by MTT assay; type: functional, cell-based
[25] = tested on: OVCAR-3; assay: Growth inhibition of human OVCAR3 cells after 48 hrs by sulforhodamine B assay; type: functional; conditions: OVCAR-3, 48 h
[26] = tested on: Mus musculus; assay: Toxicity in mouse 4T1 cells xenografted […] mouse assessed as decrease in body weight at 2.5 to 10 mg/kg, ip qd for 28 days; type: organism-based; design: dose 2.5-10 mg/kg, route intraperitoneal; conditions: in vivo, 672 h
[27] = tested on: HT-29; assay: Growth inhibition of human HT-29 cells after 48 hrs by sulforhodamine B assay; type: functional; conditions: HT-29, 48 h
[28] = tested on: NCI-H460; assay: Antitumor activity against human H460 cells xenografted in nu/nu BALB/c mouse assessed as tumor growth inhibition at 10 mg/kg, ip qd for 24 days measured on day 25 relative to control; type: functional; conditions: route intraperitoneal, read-out: GI
[29] = tested on: ACHN; assay: Growth inhibition of human ACHN cells after 48 hrs by sulforhodamine B assay; type: functional
[30] = tested on: Mus musculus; assay: Antimetastatic activity against mouse 4T1 cells xenografted in BALB/c mouse assessed as reduction of MMP9 mRNA expression in tumor at 5 mg/kg, ip qd for 23 days by RT-PCR analysis; type: functional, organism-based; design: dose 5 mg/kg
[31] = tested on: 4T1; assay: Antitumor activity against mouse 4T1 cells xenografted in […] mouse assessed as tumor growth inhibition at 5 mg/kg, ip qd for 28 days relative to control; type: functional; conditions: 4T1, ip, 672 h, route intraperitoneal, read-out: GI
[32] = tested on: U-251; assay: Growth inhibition of human U251 cells after 48 hrs by sulforhodamine B assay; type: functional; conditions: U-251, 48 h
[33] = tested on: A549; assay: Growth inhibition of human A549 cells after 48 hrs by sulforhodamine B assay; type: functional; conditions: A549, 48 h
[34] = tested on: MDA-MB-231; assay: Antitumor activity against human MDA-MB-231 cells xenografted in nu/nu BALB/c mouse assessed as tumor growth inhibition at 15 mg/kg, ip qd for 24 days measured on day 25 relative to control; type: functional; conditions: MDA-MB-231, ip, route intraperitoneal, read-out: GI
[35] = tested on: NCI-H522; assay: Growth inhibition of human NCI-H522 cells after 48 hrs by sulforhodamine B assay; type: functional; conditions: NCI-H522, 48 h
[36] = tested on: HeLa; assay: Cytotoxicity against human HeLa cells after 72 hrs by MTT assay; type: functional, cell-based
[37] = tested on: KB; assay: Cytotoxicity against human KB cells after 72 hrs by MTT assay; type: functional, cell-based
[38] = tested on: NCI-H1975; assay: Antitumor activity against human NCI-H1975 cells xenografted in nu/nu BALB/c mouse assessed as tumor growth inhibition at 30 mg/kg, ip qd for 12 days measured on day 25 relative to control; type: functional; conditions: route intraperitoneal, read-out: GI
[39] = tested on: SK-MEL-5; assay: Growth inhibition of human SK-MEL-5 cells after 48 hrs by sulforhodamine B assay; type: functional; conditions: SK-MEL-5, 48 h
[40] = tested on: Mus musculus; assay: Antimetastatic activity against mouse 4T1 cells xenografted in BALB/c mouse assessed as reduction of TGFbeta mRNA expression in tumor at 5 mg/kg, ip qd for 23 days by RT-PCR analysis; type: functional, organism-based; design: dose 5 mg/kg
[41] = tested on: A2780; assay: Cytotoxicity against human A2780 cells after 72 hrs by MTT assay; type: functional, cell-based
[42] = tested on: SW-620; assay: Growth inhibition of human SW620 cells after 48 hrs by sulforhodamine B assay; type: functional; conditions: SW-620, 48 h
[43] = tested on: HCT-15; assay: Growth inhibition of human HCT15 cells after 48 hrs by sulforhodamine B assay; type: functional; conditions: HCT-15, 48 h

In the case of `CC(=O)O[C@H]1C(=O)[C@@]2(C)[C@H]([C@H](OC(=O)c3ccccc3)[C@]3(O)C[C@H](OC(=O)[C@H](OC(=O)CCC(=O)NCCCC[C@H](NC(=O)CC[C@H](NC(=O)[C@H](C)NC(=O)/C=C/c4ccc(Cl)cc4)C(N)=O)C(N)=O)[C@H](NC(=O)c4ccccc4)c4ccccc4)C(C)=C1C3(C)C)[C@]1(OC(C)=O)CO[C@@H]1C[C@@H]2O`, the GI50 [1] is reported as < 10 nM, the GI50 [2] is reported as < 10 nM and the GI50 [3] is reported as < 10 nM. For the same compound, the GI50 [4] was < 10 nM, the Activity [5] was “Active” and the GI50 [6] was < 10 nM. For the same compound, the Activity [7] was “Active”, the Activity [8] was “Non-toxic” and the GI50 [9] was < 10 nM. The inhibition in vivo at 10 mg/kg [10] was 47.4%, the GI50 [11] was < 10 nM and the GI50 [12] was < 10 nM. For the same compound, the GI50 [13] was < 10 nM, the GI50 [14] was < 10 nM and the GI50 [15] was < 10 nM. The GI50 [16] was < 10 nM, the Activity [17] was “Active” and the Activity [18] was “Active”. For the same compound, the inhibition in vivo at 20 mg/kg [19] was 52.9%, the GI50 [20] was < 10 nM and the GI50 [21] was < 10 nM. For the same compound, the GI50 [22] was < 10 nM, the GI50 [23] was < 10 nM and the Activity [24] was “Active”. For the same compound, the GI50 [25] was < 10 nM, the Activity [26] was “Non-toxic” and the GI50 [27] was < 10 nM. For the same compound, the inhibition in vivo at 10 mg/kg [28] was 17.3%, the GI50 [29] was < 10 nM and the Activity [30] was “Active”. The inhibition in vivo at 5 mg/kg [31] was 33.5%, the GI50 [32] was < 10 nM and the GI50 [33] was < 10 nM. The inhibition in vivo at 15 mg/kg [34] was 57.4%, the GI50 [35] was < 10 nM and the Activity [36] was “Active”. The Activity [37] was “Active”, the inhibition in vivo at 30 mg/kg [38] was 93.1% and the GI50 [39] was < 10 nM. The Activity [40] was “Active”, the Activity [41] was “Active” and the GI50 [42] was < 10 nM. For the same compound, the GI50 [43] was < 10 nM.

— ChEMBL document CHEMBL1773045, “Conjugate (MTC-220) of muramyl dipeptide analogue and paclitaxel prevents both tumor growth and metastasis in mice” (J Med Chem, 2011)
